US9981906B2, “Trans-clomiphene metabolites and uses thereof” (Repros Therapeutics Inc., priority 2011, dated 2018)

Key:
[1] = following a single dose; cited from earlier work
[2] = system: cryopreserved hepatocytes from cynomolgus monkey; assay: Metabolite profile of Androxal in cryopreserved cynomolgus monkey hepatocytes; format: in vitro ADME; details: LC/MS
Protocol: (§1) A study was conducted to determine the metabolic profile of Androxal® in cryopreserved hepatocytes from Sprague-Dawley rat, Beagle dog, cynomolgus monkey, and human. The liver is the main site of drug metabolism and the full complement of hepatic drug metabolizing enzymes (including liver enzymes of the CYP P450 family) are maintained within the intact cell. Isolated liver hepatocytes constitute a physiologically relevant experimental model for the evaluation of liver-related drug properties such as metabolism. Cyropreservation of the hepatocytes greatly enhances their availability for studies.
(§2) Primary hepatocytes isolated from several donors for each animal species and five human donors were pooled according to species and cryopreserved. The hepatocytes were thawed, subjected to Percoll density gradient centrifugation to remove debris and counted to determine yield. Viability was measured using Trypan blue exclusion. The hepatocytes were diluted with CYP assay buffer (Krebs-Hensleit Buffer) to prepare a 2× cell suspension of 2.0×10^6 viable cells/ml. Aliquots of the 2× hepatocyte suspension (0.5 ml containing 1.0×10^6 cells) were transferred to appropriate wells for a final 1× cell density of 1.0×10^6 cells/well. All incubations were conducted at 37±1° C., 95% air/5% CO2, and saturating humidity in 12-well uncoated culture plates. […] The cultures were incubated for 1 and 4 hours. The sample size was N=2 replicates.
(§3) Matrix control samples were included as a source of background matrix components to aid in metabolite identification. Equal volumes of 2× hepatocyte suspension and CYP assay buffer without Androxal® were combined and incubated for 4 hours.
(§4) Chemical degradation control samples were included to evaluate the possibility of chemical degradation of Androxal® in the absence of cells. Equal volumes of 2× Androxal® dosing solution (6 and 60 μM) and CYP buffer were combined and incubated for 1 and 4 hours.
(§5) The incubations were terminated as follows: Metabolic positive control incubations were terminated by adding an equal volume of methanol. All other incubations were terminated by placing the plates on ice. The contents of each well were mixed thoroughly and divided into five cryovials. An equal volume of organic solvent was added to one cryovial. The samples were either immediately analyzed or stored in cryovials at −70°±10 C until analysis.
(§6) All samples were analyzed by reverse-phase HPLC. A UV profile of the samples was obtained followed by liquid chromatography-mass spectrometry (LC/MS) analysis using a Micromass® Q-Tof-2 mass spectrometer capable of conducting accurate mass measurement. Preliminary metabolite identification was aided by the use of Metabolynx® software.
(§7) The relative amounts of Androxal and its metabolites after 1 and 4 hour incubations are reported below at Tables 1-4.

[3] = system: cryopreserved hepatocytes from human; assay: Metabolite profile of Androxal in cryopreserved human hepatocytes; format: in vitro ADME; details: LC/MS
Protocol: as §1, §2, §3, §4, §5, §6, §7

[4] = system: cryopreserved hepatocytes from Sprague-Dawley rat; assay: Metabolite profile of Androxal in cryopreserved Sprague-Dawley rat hepatocytes; format: in vitro ADME; details: LC/MS
Protocol: as §1, §2, §3, §4, §5, §6, §7

[5] = system: cryopreserved hepatocytes from Beagle dog; assay: Metabolite profile of Androxal in cryopreserved Beagle dog hepatocytes; format: in vitro ADME; details: LC/MS
Protocol: as §1, §2, §3
Chemical degradation control samples were included to evaluate the possibility of chemical degradation of Androxal® in the absence of cells. […]
as §5, §6, §7

[6] = incubations containing 3 μM Androxal for 1 hour
[7] = incubations containing 30 μM Androxal for 4 hours
[8] = incubations containing 30 mM Androxal for 1 hour
[9] = incubations containing 3 μM Androxal for 4 hours

| relative amount, Cyno. monkey [2, 6] | relative amount, Cyno. monkey [2, 7] | relative amount, Cyno. monkey [2, 8] | relative amount, Human [3, 6] | relative amount, Human [3, 9] | relative amount, Human [3, 7] | relative amount, Human [3, 8] | relative amount, SD Rat [4, 7] | relative amount, SD Rat [4, 8] | relative amount, Beagle dog [5, 6] | relative amount, Beagle dog [5, 9] | relative amount, Beagle dog [5, 7] | relative amount, Cyno. monkey [2, 9] | relative amount, SD Rat [4, 6] | relative amount, SD Rat [4, 9] | relative amount, Beagle dog [5, 8] | Structure (SMILES) | residual blood levels [1] | relative amount, Beagle dog ([5]; incubations containing 30 μM Androxal for 4 hours, retention time 22.7) | relative amount, Beagle dog ([5]; incubations containing 30 μM Androxal for 4 hours, retention time 22.95) |
| --- | --- | --- | --- | --- | --- | --- | --- | --- | --- | --- | --- | --- | --- | --- | --- | --- | --- | --- | --- |
| 22.3 | 2175.0 | 1029.8 | 48.3 | 43.4 | 1262.4 | 699.8 | 673.8 | 336.6 | 25.9 | 18.6 | 723.5 | – | – | – | – | CCNCCOc1ccc(/C(=C(/Cl)c2ccccc2)c2ccccc2)cc1 [C24H24NOCl, N-desethyl-trans-clomiphene] | – | – | – |
| 279.1 | 2828.5 | 3166.4 | 625.8 | 285.4 | 4012.5 | 4297.8 | 3123.3 | 3166.8 | 148.9 | 103.2 | 4989.3 | 84.2 | 240.0 | 182.5 | 6227.3 | CCN(CC)CCOc1ccc(/C(=C(\Cl)c2ccccc2)c2ccccc2)cc1 [C26H28ClNO, trans-clomiphene] | – | – | – |
| 239.4 | – | – | 240.3 | 247.0 | – | – | – | 992.7 | 218.8 | 103.4 | – | 43.4 | 100.9 | 31.1 | 1535.2 | CCN(CC)CCOc1ccc(/C(=C(/Cl)c2ccccc2)c2ccc(O)cc2)cc1 [C26H28NO2Cl, 4-hydroxy-trans-clomiphene] | – | – | – |

The next lines start with the molecule.

| Structure (SMILES) | relative amount, Cyno. monkey [2, 6] | relative amount, Cyno. monkey [2, 7] | relative amount, Cyno. monkey [2, 8] | relative amount, Human [3, 6] | relative amount, Human [3, 9] | relative amount, Human [3, 7] | relative amount, Human [3, 8] | relative amount, SD Rat [4, 7] | relative amount, SD Rat [4, 8] | relative amount, Beagle dog [5, 6] | relative amount, Beagle dog [5, 9] | relative amount, Beagle dog [5, 7] | relative amount, Cyno. monkey [2, 9] | relative amount, SD Rat [4, 6] | relative amount, SD Rat [4, 9] | relative amount, Beagle dog [5, 8] | residual blood levels [1] | relative amount, Beagle dog ([5]; incubations containing 30 μM Androxal for 4 hours, retention time 22.7) | relative amount, Beagle dog ([5]; incubations containing 30 μM Androxal for 4 hours, retention time 22.95) |
| --- | --- | --- | --- | --- | --- | --- | --- | --- | --- | --- | --- | --- | --- | --- | --- | --- | --- | --- | --- |
| CCN(CC)CCOc1ccc(/C(=C(/Cl)c2ccccc2)c2ccccc2)cc1 (single isomer, unassigned) [cis isomer, cis-clomiphene] | – | – | – | – | – | – | – | – | – | – | – | – | – | – | – | – | in excess of one month | – | – |
| CCN(CC)CCOc1ccc(C(c2ccc(O)c(O)c2)C(Cl)c2ccccc2)cc1 (centres unmarked) [C26H30NO3Cl] | – | – | – | – | – | – | – | – | – | – | – | – | – | – | – | – | – | 65.9 | 43.7 |
